Measured values taken from patent publication US8148510B2, “Antifungal polypeptides” (Pioneer Hi-Bred International, Inc., priority 2004, dated 2012).
Entries after “also recorded” stand apart in the source; their conditions may differ. Where two headings read alike, the source gives them in different places.

Experiments:
[1] = system: Diplodia maydis (DMA); assay type: cell-based; details: plate assay, qualitative
[2] = system: Fusarium verticillioides (FVE); assay type: cell-based
[3] = system: Fusarium graminearum (FGR); assay type: cell-based; details: plate assay, qualitative
[4] = system: Colletotrichum graminicola (CGR); assay type: cell-based; details: plate assay, qualitative
[5] = system: Fusarium verticillioides (FVE); experiment: antifungal activity assay of transgenic maize callus extracts; assay type: cell-based; details: against FVE, qualitative
[6] = system: C. graminicola; experiment: upper stalk resistance of transgenic maize plants; assay type: in vivo, Colletotrichum graminicola; details: T0 transgenic maize, uppermost stalk internode, about five days after inoculation, 10 cm^2 area around inoculation site; control 84.7±2.6%
[7] = system: C. graminicola; experiment: lower stalk resistance of transgenic maize plants; assay type: in vivo, Colletotrichum graminicola; details: T0 transgenic maize, lowest internode inoculated 10 DAP, scored after 21 days, five lowermost internodes; empty vector control 4.0±0.2
[8] = system: F. verticilioides line that expresses the reporter gene β-glucuronidase (GUS); experiment: Fusarium verticillioides challenge assay of maize seedlings (GUS activity); assay type: in vivo; details: maize seedlings transformed with PHP22300; three days after spore exposure; 4 explants per event

Molecule	antifungal activity against DMA [1]	antifungal activity against FVE [2]	antifungal activity against FGR [3]	antifungal activity against CGR [4]	antifungal activity of protein produced and isolated from transgenic maize callus [5]	antifungal activity against DMA ([1]; listed as SEQ ID NO:1)	mean percent infected area [6]	mean score (number of internodes showing more than 75% disease) [7]	antifungal activity against FGR ([3]; listed as SEQ ID NO:1)	average GUS activity (correlates with fungal biomass) relative to controls [8]	antifungal activity against CGR ([4]; listed as SEQ ID NO:1)	antifungal activity against DMA ([1]; listed as SEQ ID NO:9)	antifungal activity against FGR ([3]; listed as SEQ ID NO:9)	antifungal activity against CGR ([4]; listed as SEQ ID NO:9)
LBNL-9827-1: antifungal polypeptide from Monascus ruber IMV 00127; identical to SEQ ID NO:9 without 3 N-terminal amino acids (LSKFGGECSLKHNTCTYLKGGKNHVVNCGSAANKKCKSDRHHCEYDEHHKRVDCQTPV)	display antifungal activity	active against FVE; also recorded: display antifungal activity	display antifungal activity	display antifungal activity	–	–	–	–	–	–	–	–	–	–
LBNL-5220: antifungal polypeptide (55 amino acids, mature mass 6174 Da) isolated from Penicillium simplicissimum fermentation broth (LKYTGTCTRANNQCKYKGQNDRDTFVKCPTFANKKCTRDGAPCSFDSYSRAVTCD)	–	showed antifungal activity; also recorded: display antifungal activity	–	–	has antifungal activity	showed antifungal activity; also recorded: display antifungal activity	54.4±1.4%	2.2±0.1	showed antifungal activity; also recorded: display antifungal activity	decrease in average GUS activity	showed antifungal activity; also recorded: display antifungal activity	–	–	–
LBNL-5197/8-2: antifungal polypeptide from Penicillium miczyinskii strain K01-17A4 (LSKYGGECSLAHNTCTYLKGGKNQVVACGTAANKRCKTDRHHCEYDEYHKTVDCQTPV)	display antifungal activity	anti-FVE activity; also recorded: display antifungal activity	display antifungal activity	display antifungal activity	–	–	–	–	–	–	–	–	–	–
LBNL-9827-2: antifungal polypeptide from Monascus ruber IMV 00127; 3 additional N-terminal amino acids versus SEQ ID NO:7 (protein) DVQLSKFGGECSLKHNTCTYLKGGKNHVVNCGSAANKKCKSDRHHCEYDEHHKRVDCQTPV	–	inhibited FVE, FGR, CGR, and DMA in a dose-dependent fashion; also recorded: inhibited Colletotrichum graminicola, Diplodia maydis, Fusarium graminearum, and Fusarium verticillioides in a dose-dependent fashion; also recorded: display antifungal activity	–	–	–	–	–	–	–	–	–	inhibited FVE, FGR, CGR, and DMA in a dose-dependent fashion; also recorded: inhibited Colletotrichum graminicola, Diplodia maydis, Fusarium graminearum, and Fusarium verticillioides in a dose-dependent fashion; also recorded: display antifungal activity	inhibited FVE, FGR, CGR, and DMA in a dose-dependent fashion; also recorded: inhibited Colletotrichum graminicola, Diplodia maydis, Fusarium graminearum, and Fusarium verticillioides in a dose-dependent fashion; also recorded: display antifungal activity	inhibited FVE, FGR, CGR, and DMA in a dose-dependent fashion; also recorded: inhibited Colletotrichum graminicola, Diplodia maydis, Fusarium graminearum, and Fusarium verticillioides in a dose-dependent fashion; also recorded: display antifungal activity
